# Columns and labels:
# CDK7/Cyclin H/MNAT1 = biological target: T1, CDK7/Cyclin H/MNAT1 (Homo sapiens, UniProt P50613); test: Enzymatic assay for CDK7 (FRET based LANCE Ultra kinase assay); assay type: biochemical; settings: for IC50: read-out: CDK7 enzymatic activity (IC50 range)
# T1 construct: purchased Invitrogen PR6749B
# In short: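 LANCE Ultra TR-FRET kinase assay using a ULight-labeled peptide substrate and a Eu-labeled anti-phospho antibody, with ATP at its Km. Purified CDK/cyclin complex was added to compound after brief centrifugation.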
# MM.1S = test: Cellular MM.1S viability assay (CellTiter-Glo, 72 hours); assay type: cell-based; settings: Homo sapiens, MM1.S
# Description: Human T-cell acute lymphoblastic leukemia cell line, MOLT-4 (ATCC, Cat #CRL-1582), Human multiple myeloma cell line, RPMI-8226 (Invitrogen, Cat #22400-089) and MM.1S (ATCC, Cat #CRL-2974), NSCLC (Non-small cell lung cancer) cell line H460 (ATCC, Cat #HTB-177), Human colon colorectal carcinoma cell line HCT116 (ATCC, Cat #CCL-247), Human acute monocytic leukemia cell line MV4-11 (ATCC, Cat #CRL-9591), OVCAR-3 (ATCC, Cat #HTB-161) and A2780 (ECACC, Cat #93112519) were obtained from ATCC. Cells were grown in RPMI-1640 media (Invitrogen, Cat #22400-089) supplemented with 10% FBS (Invitrogen, Cat #10099141) and 1% penicillin/streptomycin (Invitrogen, Cat #15070063) and cultured at 37° C., 5% CO2 in a humidified chamber. All cell lines were routinely tested for mycoplasma.
# The effect of the CDK7 inhibitor to inhibit the growth of target cancer cells was evaluated through the 72 hours time period of viability assay. Briefly, the candidate cell line ware plated in 96 well plate at the following density of cells respectively. 1×10^4 cells/well for MOLT-4, RPMI-8226, MV4-11 and MM.1S, 5×10^3 for H460, HCT116 and OVCAR-3 and IX 10^3 for A2780. After 24 hours, the cells were treated with various concentrations of the compound (ranging from 0.0015 uM to 10 uM). DMSO solvent without compound served as a control and final DMSO concentration less than 0.1%. After 72 hours of incubation at 37° C., 5% CO2 incubator, cells were analyzed for the viability using the CellTiter-Glo Luminescent Cell Viability Assay (Promega, Cat #G7570). All viability assays were performed in duplicate and Luminescence was read using an Envision (Perkin Elmer, USA). Data was analyzed using XLfit software.
# CDK1/Cyclin B = biological target: T2, CDK1/Cyclin B (Homo sapiens, UniProt P06493); test: Enzymatic assay for CDK1 (FRET based LANCE Ultra kinase assay); assay type: biochemical; settings: read-out: CDK1 enzymatic activity (IC50 range)
# T2 construct: purchased Invitrogen PR4768C
# T2 sequence (P06493 whole entry): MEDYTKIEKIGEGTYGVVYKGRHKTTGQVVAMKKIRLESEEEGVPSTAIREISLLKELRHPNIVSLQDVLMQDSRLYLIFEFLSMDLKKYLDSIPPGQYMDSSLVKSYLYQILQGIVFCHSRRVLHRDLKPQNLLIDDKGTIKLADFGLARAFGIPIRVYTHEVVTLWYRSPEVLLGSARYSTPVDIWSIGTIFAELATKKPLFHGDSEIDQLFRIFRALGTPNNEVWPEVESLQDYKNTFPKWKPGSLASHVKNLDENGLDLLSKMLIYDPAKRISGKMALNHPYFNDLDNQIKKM
# T2 sequence (P14635 whole entry partner): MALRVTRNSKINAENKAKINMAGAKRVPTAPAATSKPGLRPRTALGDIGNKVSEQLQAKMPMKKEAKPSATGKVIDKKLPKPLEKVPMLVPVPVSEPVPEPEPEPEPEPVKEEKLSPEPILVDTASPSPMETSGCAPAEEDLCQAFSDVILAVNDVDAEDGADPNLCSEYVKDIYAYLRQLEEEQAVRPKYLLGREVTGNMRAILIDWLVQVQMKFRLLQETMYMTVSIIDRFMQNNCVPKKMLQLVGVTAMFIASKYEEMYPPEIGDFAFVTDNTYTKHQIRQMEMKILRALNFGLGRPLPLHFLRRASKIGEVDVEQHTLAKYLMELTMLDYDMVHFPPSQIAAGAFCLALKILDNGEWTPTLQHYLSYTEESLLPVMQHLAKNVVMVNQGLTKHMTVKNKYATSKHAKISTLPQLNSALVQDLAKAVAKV
# In short: (§1)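 LANCE Ultra TR-FRET: ULight-MBP peptide (68 nM) with ATP at Km, […], 60 min at 23° C. EDTA plus Eu-anti-phospho-MBP added, another 60 min, then 665/615 nm emission read. Compounds tested as 8-dose 4-fold DMSO dilutions.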
# MV4-11 = test: Cellular MV4-11 viability assay (CellTiter-Glo, 72 hours); assay type: cell-based; settings: Homo sapiens
# In short: (§2)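 Cells were plated at line-specific densities and exposed to compound for 72 hours at 37 °C, 5% CO2, with DMSO-only wells as control (final DMSO below 0.1%). Viability was measured by CellTiter-Glo luminescence in duplicate.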
# H460 = test: Cellular H460 viability assay (CellTiter-Glo, 72 hours); assay type: cell-based; settings: Homo sapiens, NCI-H460
# In short: as §2
# CDK2/Cyclin A = biological target: T3, CDK2/Cyclin A (Homo sapiens, UniProt P24941); test: Enzymatic assay for CDK2 (FRET based LANCE Ultra kinase assay); assay type: biochemical; settings: read-out: CDK2 enzymatic activity (IC50 range)
# T3 construct: purchased Invitrogen PV6290
# In short: as §1
# HCT116 = test: Cellular HCT116 viability assay (CellTiter-Glo, 72 hours); assay type: cell-based; settings: Homo sapiens, HCT-116
# In short: as §2
# CDK5/p25 = biological target: T4, CDK5/p25 (Homo sapiens, UniProt Q00535); test: Enzymatic assay for CDK5 (FRET based LANCE Ultra kinase assay); assay type: biochemical; settings: read-out: CDK5 enzymatic activity (IC50 range)
# T4 construct: purchased Invitrogen PR8543B
# T4 sequence (Q00535 whole entry): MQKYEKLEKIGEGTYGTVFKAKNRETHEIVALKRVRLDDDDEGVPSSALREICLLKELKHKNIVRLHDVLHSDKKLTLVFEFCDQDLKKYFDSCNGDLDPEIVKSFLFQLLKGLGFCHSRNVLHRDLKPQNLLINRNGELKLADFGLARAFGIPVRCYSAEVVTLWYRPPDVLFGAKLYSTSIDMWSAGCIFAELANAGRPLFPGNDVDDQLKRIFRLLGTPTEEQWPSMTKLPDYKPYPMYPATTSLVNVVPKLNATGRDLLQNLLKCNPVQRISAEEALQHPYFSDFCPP
# T4 sequence (Q15078 99-307 partner limits assumed): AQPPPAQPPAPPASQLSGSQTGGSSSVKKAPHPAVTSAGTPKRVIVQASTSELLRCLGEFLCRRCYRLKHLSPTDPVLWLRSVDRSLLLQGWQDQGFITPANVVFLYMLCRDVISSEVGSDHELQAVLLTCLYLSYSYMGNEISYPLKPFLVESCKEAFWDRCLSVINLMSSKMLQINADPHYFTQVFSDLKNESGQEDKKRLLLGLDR
# In short: as §1
# T1 sequence (P50613 whole entry): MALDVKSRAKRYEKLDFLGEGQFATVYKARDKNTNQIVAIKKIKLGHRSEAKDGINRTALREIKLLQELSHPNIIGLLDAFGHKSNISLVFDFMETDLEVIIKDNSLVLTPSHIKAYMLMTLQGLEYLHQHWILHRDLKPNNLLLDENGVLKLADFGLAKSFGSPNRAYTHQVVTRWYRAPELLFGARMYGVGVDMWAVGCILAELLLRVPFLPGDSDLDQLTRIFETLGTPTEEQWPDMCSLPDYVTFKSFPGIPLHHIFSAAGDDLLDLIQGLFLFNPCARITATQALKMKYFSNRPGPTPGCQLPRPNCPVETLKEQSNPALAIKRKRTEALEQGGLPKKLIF
# T1 sequence (P51946 whole entry partner): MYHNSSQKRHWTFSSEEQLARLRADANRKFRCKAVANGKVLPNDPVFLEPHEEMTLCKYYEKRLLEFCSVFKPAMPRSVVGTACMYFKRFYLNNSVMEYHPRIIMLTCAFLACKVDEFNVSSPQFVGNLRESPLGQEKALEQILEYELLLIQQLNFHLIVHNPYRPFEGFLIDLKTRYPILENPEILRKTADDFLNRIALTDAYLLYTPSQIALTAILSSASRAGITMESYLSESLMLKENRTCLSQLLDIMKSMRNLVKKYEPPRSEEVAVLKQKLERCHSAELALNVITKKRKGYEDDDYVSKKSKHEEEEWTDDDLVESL
# T1 sequence (P51948 whole entry partner): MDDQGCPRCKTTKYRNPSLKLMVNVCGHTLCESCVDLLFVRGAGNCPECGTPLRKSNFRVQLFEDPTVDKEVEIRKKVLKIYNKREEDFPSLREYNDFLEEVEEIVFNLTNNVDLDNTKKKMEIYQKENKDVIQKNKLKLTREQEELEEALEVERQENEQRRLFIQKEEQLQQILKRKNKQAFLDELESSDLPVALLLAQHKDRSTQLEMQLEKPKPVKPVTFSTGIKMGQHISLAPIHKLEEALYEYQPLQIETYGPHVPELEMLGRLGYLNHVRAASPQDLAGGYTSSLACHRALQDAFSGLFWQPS
Compound,CDK1/CDK7: Selectivity of CDK7 inhibition over CDK1 inhibition (CDK7/Cyclin H/MNAT1),CDK2/CDK7: Selectivity of CDK7 inhibition over CDK2 inhibition (CDK7/Cyclin H/MNAT1),IC50 (CDK7/Cyclin H/MNAT1) [µM],IC50 (MM.1S) [µM],IC50 (CDK1/Cyclin B) [µM],IC50 (MV4-11) [µM],IC50 (H460) [µM],IC50 (CDK2/Cyclin A) [µM],IC50 (HCT116) [µM],IC50 (CDK5/p25) [µM],CDK5/CDK7: Selectivity of CDK7 inhibition over CDK5 inhibition (CDK7/Cyclin H/MNAT1)
CNC(=O)c1cc2cn(-c3ccccc3CNc3nc(N4CCC(N)CC4)nc4c(C(C)C)cnn34)nc2cc1C [Compound 160],A (A=greater than 200 fold),"B (B=less than 200 fold, but greater than 20 fold)",< 0.1,≤ 1,> 1,< 1,< 1,0.1 to 1,< 1,0.1 to 1,"B (B=less than 200 fold, but greater than 20 fold)"
CC(C)c1cnn2c(NCc3ccccc3-n3ccc(C(=O)NC4CCOCC4)n3)nc(N3CCC(N)CC3)nc12 [Compound 177],A (A=greater than 200 fold),"B (B=less than 200 fold, but greater than 20 fold)",< 0.1,≤ 1,0.1 to 1,< 1,< 1,0.1 to 1,< 1,< 0.1,C (C=less than 20 fold)
CC(C)c1cnn2c(NCc3ccccc3-n3cc(N4CCNCC4)cn3)nc(N3CCC(N)CC3)nc12 [Compound 180],"B (B=less than 200 fold, but greater than 20 fold)","B (B=less than 200 fold, but greater than 20 fold)",< 0.1,≤ 1,0.1 to 1,< 1,< 1,0.1 to 1,< 1,< 0.1,C (C=less than 20 fold)
CC(C)c1cnn2c(NCc3ccccc3-n3ccc(CO)n3)nc(N3CCC(N)CC3)nc12 [Compound 181],"B (B=less than 200 fold, but greater than 20 fold)","B (B=less than 200 fold, but greater than 20 fold)",< 0.1,≤ 1,0.1 to 1,< 1,< 1,0.1 to 1,< 1,0.1 to 1,"B (B=less than 200 fold, but greater than 20 fold)"
Cc1cccc(-c2cc3ccccc3[nH]2)c1CNc1nc(N2CCC(N)CC2)nc2c(C(C)C)cnn12 [Compound 184],A (A=greater than 200 fold),A (A=greater than 200 fold),< 0.1,≤ 1,> 1,< 1,< 1,> 1,< 1,0.1 to 1,"B (B=less than 200 fold, but greater than 20 fold)"
CC(C)c1cnn2c(NCc3c(O)cccc3-c3cc4ccccc4[nH]3)nc(N3CCC(N)CC3)nc12 [Compound 185],A (A=greater than 200 fold),A (A=greater than 200 fold),< 0.1,1 to 10,> 1,1 to 10,1 to 10,> 1,–,> 1,"B (B=less than 200 fold, but greater than 20 fold)"
COc1cccc(-c2cc3ccccc3[nH]2)c1CNc1nc(N2CCC(N)CC2)nc2c(C(C)C)cnn12 [Compound 186],A (A=greater than 200 fold),A (A=greater than 200 fold),< 0.1,1 to 10,> 1,1 to 10,1 to 10,> 1,–,> 1,"B (B=less than 200 fold, but greater than 20 fold)"
CC(C)c1cnn2c(N[C@@H](C)c3ccccc3-c3cc4ccccc4[nH]3)nc(N3CCC(N)CC3)nc12 [Compound 187],A (A=greater than 200 fold),A (A=greater than 200 fold),< 0.1,1 to 10,> 1,1 to 10,1 to 10,> 1,–,> 1,A (A=greater than 200 fold)
CC(C)c1cnn2c(N[C@H](C)c3ccccc3-c3cc4ccccc4[nH]3)nc(N3CCC(N)CC3)nc12 [Compound 188],"B (B=less than 200 fold, but greater than 20 fold)",C (C=less than 20 fold),0.1 to 1,1 to 10,> 1,1 to 10,1 to 10,> 1,–,> 1,C (C=less than 20 fold)
CC(C)c1cnn2c(NCc3c(Cl)cccc3-n3cc4c(n3)CCNC4=O)nc(N3CCC(N)CC3)nc12 [Compound 189],A (A=greater than 200 fold),A (A=greater than 200 fold),< 0.1,≤ 1,> 1,< 1,< 1,> 1,< 1,0.1 to 1,"B (B=less than 200 fold, but greater than 20 fold)"

# Further lines, with some results ahead:
CDK1/CDK7: Selectivity of CDK7 inhibition over CDK1 inhibition (CDK7/Cyclin H/MNAT1),CDK2/CDK7: Selectivity of CDK7 inhibition over CDK2 inhibition (CDK7/Cyclin H/MNAT1),IC50 (CDK7/Cyclin H/MNAT1) [µM],IC50 (MM.1S) [µM],IC50 (CDK1/Cyclin B) [µM],IC50 (MV4-11) [µM],IC50 (H460) [µM],IC50 (CDK2/Cyclin A) [µM],IC50 (HCT116) [µM],IC50 (CDK5/p25) [µM],Compound,CDK5/CDK7: Selectivity of CDK7 inhibition over CDK5 inhibition (CDK7/Cyclin H/MNAT1)
A (A=greater than 200 fold),A (A=greater than 200 fold),< 0.1,≤ 1,> 1,< 1,< 1,> 1,< 1,0.1 to 1,CC(=O)NC1CCc2nn(-c3ccccc3CNc3nc(N4CCC(N)CC4)nc4c(C(C)C)cnn34)cc2C1 (stereo not shown) [Compound 150],"B (B=less than 200 fold, but greater than 20 fold)"
A (A=greater than 200 fold),A (A=greater than 200 fold),< 0.1,≤ 1,> 1,< 1,< 1,> 1,< 1,0.1 to 1,CNC(=O)c1ccc2nc(-c3ccccc3CNc3nc(N4CCC(N)CC4)nc4c(C(C)C)cnn34)cnc2c1 [Compound 153],"B (B=less than 200 fold, but greater than 20 fold)"
A (A=greater than 200 fold),A (A=greater than 200 fold),< 0.1,≤ 1,> 1,< 1,< 1,0.1 to 1,< 1,< 0.1,CC(C)c1cnn2c(NCc3ccccc3-n3cc(C(=O)N4CCN(C)CC4)cn3)nc(N3CCC(N)CC3)nc12 [Compound 154],"B (B=less than 200 fold, but greater than 20 fold)"

# From patent US11945822B2, “Pyrazolo-triazine and/or pyrazolo-pxrimidine derivatives as selective inhibitor of cyclin dependent kinase” (QURIENT CO., LTD., priority 2018, dated 2024)
